Measured values from patent US20130072506A1, “6,8-DISUBSTITUTED PURINE COMPOSITIONS” (priority 2011, published 2013).

What was measured:
[1] = test system: cytokinin-dependent tobacco callus; test: Growth of cytokinin-dependent tobacco callus (plant cell division); assay type: cell-based, Nicotiana tabacum L. cv. Wisconsin 38; conditions: at concentration with highest activity; activity of kinetin set at 100%
Procedure: The effect on plant cell division. Cytokinin-dependent tobacco callus Nicotiana tabacum L. cv. Wisconsin 38 was maintained at 25° C. in darkness on modified MS medium, containing 4 μmol/l nicotinic acid, 2.4 μmol/l pyridoxine hydrochloride, 1.2 μmol/l thiamine, 26.6 μmol/l glycine, 1.37 μmol/l glutamine, 1.8 μmol/1 myo-inositol, 30 g/l of sucrose, 8 g/l of agar, 5.37 μmol/l NAA and 0.5 μmol/l BAP. Subcultivation was carried out every three weeks. Fourteen days before the bioassay, the callus tissue was transferred to the media without BAP. Biological activity was determined from the increase in fresh callus weight after four weeks of cultivation. Five replicates were prepared for each cytokinin concentration and the entire test was repeated twice. From the obtained data, the concentration with highest activity was selected for each compound tested. Relative activity at this concentration was calculated (see Table 4 below).
The cytokinins to be tested were dissolved in dimethylsulfoxide (DMSO) and the solution brought up to 10^−3M with distilled water.

[2] = test system: human skin fibroblast line ASF-2; test: Cell survival and toxicity (MTT assay); assay type: cell-based
Procedure: (§1) All cell culture experiments were performed on early and mid passage cultures (about 20 to 40% lifespan completed) of normal human skin fibroblast line, designated ASF-2. In order to check the effects of test compounds on senescent cells, late passage cells with more than 90% lifespan completed were used. ASF-2 cell line was established from a mammary skin biopsy obtained from a young, non-smoking and healthy […] at the time of breast reduction operation. Normal culture conditions of medium (DMEM) containing antibiotics, 10% foetal calf serum, and incubation at 37° C. with 95% humidity were used. The effects of the test compounds were determined using the following procedures.
Cell survival, toxicity, and JC-1 staining. Cell survival after exposure to various doses of the test compounds was measured with the 3-(4,5 dimethylthiazol-2-yl)-2,5-diphenyltetrazolium bromide (MTT) assay. About 5,000 cells were seeded per well in a 96-well plate 24 h before the experiment. Cells were then treated with various doses of the compound to be tested. The wells were washed in Hank's and new medium was added. After three days, MTT (Sigma, M2128) was added at 0.5 mg/ml in medium. After 4 h, MTT was collected and then dissolved in isopropanol and HCl over a 12-16 h period. The absorbance at 595 nm was measured.

[3] = test system: erytroid leukemia cell line K-562; test: In vitro cytotoxic activity (metabolisation of Calcein AM); assay type: cell-based, human; conditions: Homo sapiens, K562, 72 hours, highest concentration tested 100 μM in routine testing
Method in brief: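 Cells were pre-incubated 24 hours at 2.500-30.000 cells per well, then exposed to six 3-fold dilutions, usually from 100 μM top, for 72 hours at 37° C, 5% CO2, in triplicate. Calcein AM was added at 1 μg/ml final and fluorescence read after 1 hour; GI50 is the concentration halving Calcein AM conversion.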

[4] = test system: Amaranthus caudatus cotyledon/hypocotyl explants; test: Amaranthus bioassay (betacyanin content); assay type: in vivo, Amaranthus caudatus var. atropurpurea
Procedure: Testing of Novel Compounds in Amaranthus bioassay. Standard Amaranthus bioassay was performed with several modifications. The seeds of Amaranthus caudatus var. atropurpurea were surface-sterilized in 10% N-chlorobenzene sulfonamide (w/v) for 10 min and washed 5 times in deionized water. They were placed in 14 cm Petri dishes containing paper tissues saturated with deionized water. After 72 hours of cultivation at 25° C. in darkness, the roots of the seedlings were cut off. The explants, consisting of two cotyledons and hypocotyls, were placed in 5 cm Petri dishes on two layers of filter paper soaked in 1 ml of incubation medium containing 10 μmol Na2HPO4—KH2PO4, pH 6.8, 5 μmol tyrosine and the cytokinin to be tested. There were 20 explants per dish. The procedure was carried out under a green safe light in a darkroom. After a 48 hours of incubation at 25° C. in darkness, betacyanin was extracted by freezing the explants in 4 ml 3.33 μM acetic acid. The concentration of betacyanin was determined by comparing the absorbance at 537 nm and 620 nm as follows: DA=A537nm−A620nm. From the obtained data, the concentration with highest activity was selected for each compound tested. Relative activity of the compound at this concentration was calculated (see Table 3 below). […] The values shown in Table 3 are means of five replicates and the entire test was repeated twice.
The cytokinins to be tested were dissolved in dimethylsulfoxide (DMSO) and the solution brought up to 10^−3 M with distilled water.

[5] = test system: senescent human skin fibroblasts; test: Effects on senescent human skin fibroblasts (morphology, cell number); assay type: cell-based
Text: B) Cellular parameters: • (4) Cellular morphology: to evaluate cytoplasmic and nuclear stability; • (5) Cytoskeleton organization: to evaluate the stability of the cytoskeleton; • (6) Appearance of senescence-specific β-galactosidase: to rule out pro-aging effects; • (7) Lysosomal staining (Neutral red); • (8) JC-1 Staining of Mitochondria: for evaluation of mitochondrial function; • (9) Rejuvenation studies: for evaluation of reversion effect from aged phenotype to young phenotype; and
as §1

Nc1nc2c(NCc3ccco3)ncnc2[nH]1 [Compound 82, 6-furfurylamino-8-aminopurine]
Activity (%) [1]: 150.10% | reduction in survival ([2]; 100 μM, MTT): 15% | cell survival ([2]; 500 μM, MTT): reduction in cell survival | toxic effects (MTT) ([2]; young fibroblasts, until a dose of 100 μM): little toxic effects | GI50 [3]: 68.2 µM | Activity (%) ([4]; at concentration with highest activity, activity of kinetin set at 100%): 147.45% | Concentration with highest activity ([4]; betacyanin content, 48 hours in darkness): 10^−4 mol/l | number of surviving senescent cells ([5]; 7 to 14 days): maintains the number of surviving senescent cells | appearance of senescent cells (intracellular debris) ([5]; 40 and 80 μM, vs controls): less intracellular debris | morphology of senescent cells ([5]; after 14 days of treatment): looking relatively younger
